In patent publication US9989535B2, “Methods and reagents for analyzing protein-protein interfaces” (Warp Drive Bio, Inc., priority 2015, dated 2018):

What was measured:
Type in all cases: binding
KRASGTP/S39C lite = biological target: T1, KRASGTP/S39C lite (Homo sapiens, UniProt P01116, C118S/C51S/C80L/G12V/S39C); assay: Formation of KRASGTP/S39C lite/C2-FK506 conjugates, SDS-PAGE
T1 construct: residues 1-169 containing G12V/S39C/C51S/C80L/C118S; made in house
Protocol: (§1) Experimental Protocol: A 1:2 molar ratio of target protein and compound are mixed together in 12.5 mM HEPES pH 7.4, 75 mM NaCl buffer containing 2% DMSO. The reaction is incubated at 37° C. for 30 min, followed by overnight incubation at room temperature. Cross-linking efficiency is assessed by SDS-PAGE gel. Conjugates migrate slower than non-cross-linked target protein. For thiol reactive compounds, the Cys specific attachment of the compound to the target protein can be further confirmed by SDS-PAGE after the addition of 100 mM DTT to the reaction mixture, which reduces the conjugate back into its components.
Experimental Protocol: A 1:2 molar ratio of KRASGTP/S39C lite and C2-FK506 are mixed together in 12.5 mM HEPES pH 7.4, 75 mM NaCl buffer containing 2% DMSO. The reaction is incubated at 37° C. for 30 min, followed by overnight incubation at room temperature. Cross-linking efficiency is assessed by SDS-PAGE gel. Attachment of C2-FK506 to Cysteine 39 on KRASGTP/S39C lite is also assessed by incubation of the reaction mixture with 100 mM DTT.

KRASGTP/S39C lite/FKBP12 = biological target: T2, KRASGTP/S39C lite/FKBP12 (Homo sapiens, UniProt P01116+P62942, C118S/C51S/C80L/G12V/S39C); assay: Ternary complex formation by SEC and SDS-PAGE; conditions: SEC profile and SDS-PAGE of elution peaks
T2 construct: residues 1-169 containing G12V/S39C/C51S/C80L/C118S; made in house
Protocol: (§2) A 1:2:2 molar ratio of compound, presenter protein, and target protein are mixed together in 12.5 mM HEPES pH 7.4, 75 mM NaCl buffer containing 2% DMSO. The reaction is incubated at 37° C. for 30 min, followed by overnight incubation at room temperature. Pure complex is isolated by Size Exclusion Chromatography (SEC) purification. The reaction mixture is directly injected on a Superdex 75 column (CV 120 mL) pre-equilibrated with buffer containing 12.5 mM HEPES pH 7.4, 75 mM NaCl. Complex elutes at a higher molecular weight than unreacted target protein and presenter protein. To confirm presence of complex in the elution peak, samples are assessed by SDS-PAGE.
(§3) The reaction is incubated at 37° C. for 30 min, followed by overnight incubation at room temperature. Pure complex is isolated by Size Exclusion Chromatography (SEC) purification. The reaction mixture is directly injected on a Superdex 75 column (CV 120 mL) pre-equilibrated with buffer containing 12.5 mM HEPES pH 7.4, 75 mM NaCl. Complex elutes at around 69 mL post injection and unreacted KRASGTP/S39C lite and FKBP12 elutes at around 75 mL and 87 mL post injection respectively. To confirm the presence of KRASGTP/S39C lite and FKBP12 in the elution peak, samples are also assessed by SDS-PAGE.

KRASGTP/G12C [1] = biological target: T3, KRASGTP/G12C (Homo sapiens, UniProt P01116+P62942, G12C); assay: Disulfide cross-linking efficiency by mass spectrometry, with or without FKBP12; conditions: 2 μM KRAS, 10 μM ligand, 4 hours RT, MS
T3 construct: KRASGTP/G12C (in-house, residues 1-169); made in house
Protocol: Experimental protocol: In order to follow the kinetics of disulfide crosslinking reactions, Agilent 6230 TOF-LC/MS and Agilent 1260 HPLC instruments employing a AdvanceBio RP-mAb C4 column (2.1×100 mm, 3.5 μm) and equipped with an auto-sampler were used. HPLC grade acetonitrile and water (each containing 1.0 mM ammonium formate and 1% formic acid by volume) were used as mobile phase with the following ramp: 0.6 ml/min flow rate, water:acetonitrile=95:5 from 0.0 to 13.0 min ramping to water:acetonitrile=5:95 from 13.0 to 17.0 min. Total time=17.0 min.
All crosslinking reactions were performed in 1.5 mL amber colored glass vials equipped with 0.5 mL glass inserts. A water-soluble peptide (SEQ ID NO: 1: […]) was employed as an internal standard. Although the actual sequence of the internal standard is inconsequential, choice of amino acid residues were critical to avoid interference in the crosslinking assays. […] All reactions and standard solutions were prepared in HEPES (pH 7.4, 1.0 mM MgCl2) buffer.
Prior to every reaction, a standard curve was obtained for the individual components using a series of standard solutions (an example of standard curve analysis for FKBP12 is shown in Table 3 below). Using the data from standard curve, μmol of protein samples were plotted against the ratio of areas (sample:std) and a linear fit (y=mx+c) was employed to obtain the slope and intercept. The value of slope and intercept involved in these standard curves were accounted for during evaluation of the substrate and product concentration before and during the course of the reaction. For every substrate/product, an initial injection was followed up by a blank injection to verify presence of any residual protein/reagents. Based on this analysis the sequence of auto-sampler can be adjusted to included appropriate number of blank injections for removal of residual components, if any. The MS spectra were analyzed using Agilent MassHunter v B.07.0 software.
In a representative experiment to assess the presenter dependency of ligand cross-linking on the target protein, KRASGTP/G12C and either C3- or C4-SLF ligand were incubated in the presence or absence of FKBP12 at concentrations of 2 μM KRAS, 10 μM FKBP12, 10 μM C3- or C4-SLF for 4 hours at room temperature in 12.5 mM HEPES pH 7.4, 75 mM NaCl, 1 mM MgCl2, 3% DMSO. Analysis of the amount of KRAS undergoing disulfide cross-linking with the ligand using the method above.

KRASGTP/G12C [2] = biological target: T3, KRASGTP/G12C; assay: Cross-linking gel shift assay (12% SDS-PAGE), with or without FKBP12; conditions: 60 μM KRAS, 180 μM FKBP12, 180 μM ligand, quenched by MMTS
Protocol: In parallel to mass spectrometry analysis, cross-linking reactions with C3- or C4-SLF were subjected to gel shift assay using 12% SDS-PAGE in the presence or absence of FKBP12 at the same experimental condition described above except that cross-linking reactions were set up at higher concentrations (60 μM KRAS, 180 μM FKBP12, and 180 μM C3- or C4-SLF) and they were quenched by MMTS to terminate the reaction.

[3] = biological target: T4, KRASGDP/S39C lite/CypAC52S (Homo sapiens, UniProt P01116+P62937, C118S/C51S/C52S/C80L/G12V/S39C); assay: Ternary complex formation by SEC and SDS-PAGE; conditions: SEC profile and SDS-PAGE of elution peaks
T4 construct: residues 1-169 containing G12V/S39C/C51S/C80L/C118S; made in house
Protocol: as §2
as §3, with “KRASGDP/S39C” for “KRASGTP/S39C”, “CypAC52S” for “FKBP12”, “80” for “87”

KRASGTP/G12C lite = biological target: T5, KRASGTP/G12C lite (Homo sapiens, UniProt P01116, C118S/C51S/C80L/G12C); assay: Formation of KRASGTP/G12C lite/SFAX9DS conjugates, SDS-PAGE; conditions: 1:2 protein:compound
T5 construct: residues 1-169 containing G12C/C51S/C80L/C118S; made in house
Protocol: as §1
(§4) Experimental Protocol: A 1:2 molar ratio of KRASGTP/G12C lite and SFAX9DS are mixed together in 12.5 mM HEPES pH 7.4, 75 mM NaCl buffer containing 2% DMSO. The reaction is incubated at 37° C. for 30 min, followed by overnight incubation at room temperature. Cross-linking efficiency is assessed by SDS-PAGE gel. Wild-type CypA also cross-linked with the compound. Cysteine 52 as a reactive Cysteine on CypA and was mutated to Serine to abrogate presenter cross-linking.

CypAC52S = biological target: T6, CypAC52S (Homo sapiens, UniProt P62937, C52S); assay: Presenter cross-linking with SFAX9DS, SDS-PAGE
T6 construct: made in house
T6 sequence (P62937 whole entry C52S): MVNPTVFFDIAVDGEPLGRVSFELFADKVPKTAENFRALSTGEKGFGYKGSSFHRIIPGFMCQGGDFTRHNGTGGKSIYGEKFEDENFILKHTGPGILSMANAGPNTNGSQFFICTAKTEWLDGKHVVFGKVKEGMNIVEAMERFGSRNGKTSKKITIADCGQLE
Protocol: as §4

## CO[C@H]1C[C@@H](C)C/C(C)=C/[C@@H](CCCC(=O)NCCSSc2ccccn2)C(=O)C[C@H](O)[C@@H](C)[C@@H](/C(C)=C/[C@@H]2CC[C@@H](O)[C@H](OC)C2)OC(=O)[C@@H]2CCCCN2C(=O)C(=O)[C@]2(O)O[C@H]1[C@@H](OC)C[C@H]2C [Compound C2-FK506]
KRASGTP/S39C lite; 1:2 protein:compound, 37° C. 30 min then overnight RT
  Cross-linking efficiency with KRASGTP/S39C lite: cross-links efficiently
KRASGTP/S39C lite; reaction mixture + 100 mM DTT
  Site specificity of attachment: specific for Cysteine 39

## CCC(C)(C)C(=O)C(=O)N1CCCC[C@H]1C(=O)OCCCC(=O)NCCSSc1ccccn1 [Compound C2-Holt]
KRASGTP/S39C lite/FKBP12
  Formation of KRASGTP/S39C lite/C2-Holt/FKBP12 complex: confirm the formation

## CCC(C)(C)C(=O)C(=O)N1CCCC[C@H]1C(=O)O[C@H](CCc1ccc(OC)c(OC)c1)c1cccc(NC(=O)CCCSSc2ccccn2)c1 [Compound C4-SLF, (R)-3-(3,4-dimethoxyphenyl)-1-(3-(4-(pyridin-2-yldisulfanyl)butanamido)phenyl)propyl (S)-1-(3,3-dimethyl-2-oxopentanoyl)piperidine-2-carboxylate]
KRASGTP/G12C [1]; FKBP12 absent (−)
  % × link to KRAS: 7.0%
KRASGTP/G12C [1]; FKBP12 present (+) 10 μM
  % × link to KRAS: 69.8%
KRASGTP/G12C [2]
  Ligand cross-linking efficiency in the presence of FKBP12, gel shift: boosted significantly

## COC(=O)[C@@H]1CCCN(C(=O)[C@H](Cc2cccc(O)c2)NC(=O)[C@@H](NC(=O)CCCSSc2ccccn2)C(C)C)N1 [SFAC4DS, methyl (S)-1-((S)-3-(3-hydroxyphenyl)-2-((S)-3-methyl-2-(4-(pyridin-2-yldisulfanyl)butanamido)butanamido)propanoyl)hexahydropyridazine-3-carboxylate]
[3]
  Formation of KRASGDP/S39C lite/SFAC4DS/CypAC52S complex: confirm the formation

## COC(=O)[C@@H]1CCCN(C(=O)[C@H](Cc2cccc(O)c2)NC(=O)[C@@H](NC(=O)CCOCCOCCSSc2ccccn2)C(C)C)N1 [SFAX9DS]
KRASGTP/G12C lite
  Cross-linking efficiency with KRASGTP/G12C lite: cross-links efficiently
CypAC52S
  Cross-linking of presenter CypAC52S to compound: does not cross-link
